# In patent US20100113597A1, “PHARMACEUTICAL COMPOSITION FOR PREVENTION OF PROGRESS OF INTESTINAL CONSTRICTION ASSOCIATED WITH CROHN'S DISEASE” (priority 2007, published 2010):
# Entries after “also recorded” stand apart in the source; their conditions may differ.
# Legend:
# [1] = test system: Crohn's disease; settings: single case; tranilast with enteral nutrients, low residue diet and mepenzolate bromide; cited from earlier work
# [2] = test system: intestinal stricture associated with Crohn's disease; experiment: Effect of tranilast on progression of intestinal stricture in Crohn's disease patients, randomized against a group not given tranilast; type: in vivo, human (Crohn's disease patients)
# Experimental: In 24 Crohn's disease patients with non-symptomatic intestinal stricture, the effect by tranilast on the progression of intestinal stricture associated with Crohn's disease was evaluated and compared between one group administered tranilast and another group not administered tranilast. There was no significant difference in backgrounds of the patients between the groups. The 24 patients were randomly divided into two groups consisting of a group administered tranilast (12 cases) and a group not administered tranilast (12 cases). […] The primary endpoint was a cumulative non-symptomatic stricture rate which was a rate of cases wherein severe symptomatic intestinal stricture requiring balloon dilatation or surgery occurred. In addition, the diameters of the stricture at the beginning of observation (basal diameter) and at the end of observation (final diameter) were measured. The secondary endpoint was a monthly progression rate of the stricture obtained from the rate of the final diameter relative to the basal diameter.
structure (smiles),measurement,setting,value
"COc1ccc(C=CC(=O)Nc2ccccc2C(=O)O)cc1OC [tranilast, N-(3,4-dimethoxycinnamoyl)anthranilic acid]",period maintained without exacerbation of symptoms of Crohn's disease,[1],3 years
same,monthly progression rate of the stricture,"[2]; from the final diameter relative to the basal diameter, −0.86% in the group not given tranilast",-0.48%
same,average diameter of the stricture at the end of observation (final diameter),"[2]; group administered tranilast 200 mg three times daily, median observation 782 days",5.60 mm
same,average diameter of the stricture at the beginning of observation (basal diameter),"[2]; group administered tranilast, baseline",6.40 mm
same,cases withdrawn due to discontinued administration because of a reduced peripheral white blood cell count,"[2]; of 12 cases, tranilast 200 mg three times daily",1 case
same,number of cases who required balloon dilatation due to severe intestinal stricture,"[2]; tranilast 200 mg three times daily orally, 12 cases, 5 cases in the group not given tranilast",1 case
same,incidence of intestinal obstruction/stricture symptoms due to intestinal stricture (cumulative non-symptomatic stricture rate),"[2]; tranilast 600 mg per day versus the group not given tranilast, p=0.0034",significantly inhibited; also recorded: significantly low
